Columns and labels:
Format in all cases: in vivo
[1] = system: adult cat fleas (Ctenocephalides felis); experiment: Ctenocephalides felis in-vitro contact test, adult cat flea; details: Ctenocephalides felis; 1 μg/cm^2 (=100 g/ha), after 48 hours; read-out: efficacy (fleas dead or moribund)
Experimental: Ctenocephalides Felis—In-Vitro Contact Tests Adult Cat Flea
(§1) 9 mg compound is solved in 1 mL acetone and diluted with acetone to the desired concentration. 250 μL of the test solution is filled in 25 mL glass test tubes and homogeneously distributed on the inner walls by rotation and tilting on a shaking device (2 h at 30 rpm). With a compound concentration of 900 ppm, an inner surface of 44.7 cm^2 and a homogeneous distribution, a dose of 5 μg/cm^2 is achieved.
(§2) After the solvent has evaporated, each test tube is filled with 5-10 adult cat fleas (Ctenocephalides felis), closed with a perforated lid and incubated in a lying position at room temperature and relative humidity. After 48 hours efficacy is determined. The fleas are patted on the ground of the tubes and are incubated on a heating plate at 45-50° C. for at most 5 minutes. Immotile or uncoordinated moving fleas, which are not able to escape the heat by climbing upwards, are marked as dead or moribund.
An efficacy of 100% means all fleas are dead or moribund; 0% means no fleas are dead or moribund.

[2] = system: adult engorged female ticks (Rhipicephalus microplus); experiment: Rhipicephalus (Boophilus) microplus injection test; details: 4 μg/tick, after 7 days
Experimental: Rhipicephalus (Boophilus) Microplus—Injection Test
(§3) Solvent: Dimethyl Sulfoxide
To produce a suitable preparation of active compound, 10 mg of active compound are dissolved in 0.5 mL solvent, and the concentrate is diluted with solvent to the desired concentration.
Five adult engorged female ticks (Rhipicephalus microplus) are injected with 1 μL compound solution into the abdomen. The ticks are transferred into replica plates and incubated in a climate chamber.
After 7 days egg deposition of fertile eggs is monitored. Eggs where fertility is not visible are stored in a climate chamber till hatching after about 42 days. An efficacy of 100% means all eggs are infertile; 0% means all eggs are fertile.

[3] = system: brown planthopper (Nilaparvata lugens); experiment: Nilaparvata lugens spray test; details: Nilaparvata lugens, in Oryza sativa, 96 h
Experimental: Nilaparvata lugens—Spray Test
(§4) Solvent: 78.0 parts by weight of acetone • • 1.5 parts by weight of dimethylformamide
(§5) Emulsifier: alkylarylpolyglycol ether
(§6) To produce a suitable preparation of active compound, 1 part by weight of active compound is mixed with the stated amount of solvents and is diluted with water, containing an emulsifier concentration of 1000 ppm, to the desired concentration. Further test concentrations are prepared by dilution with emulsifier containing water.
Rice plants (Oryza sativa) are sprayed with a preparation of the active ingredient of the desired concentration and the plants are infested with the brown planthopper (Nilaparvata lugens).
After 4 days mortality in % is determined. 100% means all planthoppers have been killed and 0% means none of the planthoppers have been killed.

[4] = system: adult brown dog ticks (Rhipicephalus sanguineus); experiment: Rhipicephalus sanguineus in-vitro contact test, adult brown dog ticks; details: Rhipicephalus sanguineus; 1 μg/cm^2 (=100 g/ha), after 48 hours; read-out: efficacy (ticks dead or moribund)
Experimental: Rhipicephalus sanguineus—In-Vitro Contact Tests with Adult Brown Dog Ticks
as §1
as §2, with “brown dog ticks (Rhipicephalus sanguineus),” for “cat fleas (Ctenocephalides felis),”, “ticks” for “fleas”, “ticks,” for “fleas,”
An efficacy of 100% means all ticks are dead or moribund; 0% means no ticks are dead or moribund.

[5] = system: adult unfed cat fleas (Ctenocephalides felis); experiment: Ctenocephalides felis oral test; details: 48 h, 100 ppm in citrated cattle blood, after 2 days
Experimental: Ctenocephalides felis—Oral Test
as §3
To produce a suitable preparation of active compound, 10 mg of active compound are dissolved in 0.5 mL solvent, and the concentrate is diluted with citrated cattle blood to the desired concentration.
Approximately 20 adult unfed cat fleas (Ctenocephalides felis) are placed in a flea chamber whose top and bottom is covered with gauze. A chamber whose bottom is sealed with parafilm, is filled with the blood-compound solution and placed on top of the flea chamber, so that the fleas can suck the blood. The blood chamber is heated to 37° C. whereas the flea chamber is kept at room temperature.
After 2 days mortality in % is determined. 100% means all the fleas have been killed; 0% means none of the fleas have been killed.

[6] = system: Rhipicephalus (Boophilus) microplus larvae (strain Parkhurst, resistant against synthetic pyrethroids); experiment: Rhipicephalus (Boophilus) microplus in-vitro contact test, larval cattle tick; details: Rhipicephalus microplus; 1 μg/cm^2 (=100 g/ha), after 48 hours; read-out: efficacy (larvae dead or moribund)
Experimental: Rhipicephalus (Boophilus) Microplus—In-Vitro Contact Tests Larval Cattle Tick (Strain Parkhurst, Resistant Against Synthetic Pyrethroids
as §1
After the solvent has evaporated, each test tube is filled with 20-50 cattle tick larvae (Rhipicephalus microplus), closed with a perforated lid and incubated in a horizontal position at 85% relative humidity and 27° C. in an incubator. After 48 hours efficacy is determined. The larvae are patted on the ground of the tubes and negative geotactic behavior is recorded.

[7] = system: larvae of the southern green stink bug (Nezara viridula); experiment: Nezara viridula spray test; details: Nezara viridula, in Hordeum vulgare, 96 h
Experimental: Nezara viridula—Spray Test
as §4, §5
as §6, with “solvent,” for “solvents”, “and the concentrate” for “and”
Barley plants (Hordeum vulgare) are sprayed with a test solution containing the desired concentration of the active ingredient and are infested with larvae of the southern green stink bug (Nezara viridula).
After 4 days mortality in % is determined. 100% means all the stink bugs have been killed; 0% means none of the stink bugs have been killed.

[8] = system: green peach aphid (Myzus persicae); experiment: Myzus persicae spray test (MYZUPE); details: in Brassica rapa, foliar, 120 h
Experimental: Myzus persicae—Spray Test
(§7) Solvent: 78.0 parts by weight acetone • 1.5 parts by weight dimethylformamide
as §5, §6
Chinese cabbage (Brassica pekinensis) leaf disks infected with all instars of the green peach aphid (Myzus persicae), are sprayed with a preparation of the active ingredient of the desired concentration.
After 5 days mortality in % is determined. 100% means all aphids have been killed and 0% means none of the aphids have been killed.
Myzus persicae—Spray Test (MYZUPE
After the specified period of time, mortality in % is determined. 100% means all aphids have been killed and 0% means none of the aphids have been killed.

[9] = system: fall armyworm larvae (Spodoptera frugiperda); experiment: Spodoptera frugiperda spray test (SPODFR); details: in Zea mays, 168 h
Experimental: Spodoptera frugiperda—Spray Test
as §7, §5, §6
Maize (Zea mays) leaf sections are sprayed with a preparation of the active ingredient of the desired concentration. Once dry, the leaf sections are infested with fall armyworm larvae (Spodoptera frugiperda).
After 7 days mortality in % is determined. 100% means all caterpillars have been killed and 0% means none of the caterpillars have been killed.
Spodoptera frugiperda—Spray Test (SPODFR
After the specified period of time, mortality in % is determined. 100% means all caterpillars have been killed and 0% means none of the caterpillars have been killed.

[10] = system: larvae of the banded cucumber beetle (Diabrotica balteata); experiment: Diabrotica balteata spray test; details: Diabrotica balteata, 168 h; 100 g/ha (=32 μg/well), wheat seeds, after 7 days; read-out: efficacy (seedlings grown)
Experimental: Diabrotica balteata—Spray Test
as §4, §5
as §6, with “solvent,” for “solvents”, “and the concentrate” for “and”
Soaked wheat seeds (Triticum aestivum) are placed in a multiple well plate filled with agar and some water and are incubated for 1 day to germinate (5 seeds per well). The germinated wheat seeds are sprayed with a test solution containing the desired concentration of the active ingredient. Afterwards each unit is infected with 10-20 larvae of the banded cucumber beetle (Diabrotica balteata).
After 7 days efficacy in % is determined. 100% means all the seedlings have grown up like in the untreated, uninfected control; 0% means none of the seedlings have grown.

[11] = system: adult mosquitoes Aedes aegypti strain MONHEIM; experiment: Aedes aegypti test (AEDSAE surface treatment & contact assay); details: surface concentration 4 mg/m^2, 30 min exposure, 24 hours after contact, read-out: efficacy (mortality)
Experimental: Aedes aegypti Test (AEDSAE Surface Treatment & Contact Assay
(§8) Solvent: Aceton+2000 ppm rapeseed oil methyl ester (RME)
In order to produce a sufficient, active ingredient containing solution it is necessary to solve the test compound in the solvent-mix (acetone at 2 mg/ml/RME 2000 ppm). This solution is pipetted onto a glazed tile and after evaporation of the acetone, adult mosquitoes of the species Aedes aegypti strain MONHEIM are placed onto the dried surface. The exposure time is 30 minutes. Mortality in percent (%) is determined 24 hours after contact of the insects to the treated surface. 100% mortality means that all tested insects are dead, whereas 0% means that no insect died.

[12] = system: adult Blattella germanica strain PAULINIA; experiment: Blattella germanica test (BLTTGE surface treatment & contact assay); details: surface concentration 20 mg/m^2, 30 min exposure, 24 hours after contact, read-out: efficacy (mortality)
Experimental: Blattella germanica Test (BLTTGE Surface Treatment & Contact Assay
as §8
In order to produce a sufficient, active ingredient containing solution it is necessary to solve the test compound in the solvent-mix (acetone at 2 mg/ml/RME 2000 ppm). This solution is pipetted onto a glazed tile and after evaporation of the acetone, adult animals of the species Blattella germanica strain PAULINIA are placed onto the dried surface. The exposure time is 30 minutes.
Mortality in percent (%) is determined 24 hours after contact of the insects to the treated surface. 100% mortality means that all tested insects are dead, whereas 0% means that no insect died.

SMILES	pest or weed control at 1 µg/cm2 [1]	efficacy (infertile eggs) [2]	mortality at 500 g/ha [3]	pest or weed control at 1 µg/cm2, 100 g/ha [4]	mortality at 100 ppm [5]	pest or weed control at 1 µg/cm2 [6]	mortality at 500 g/ha [7]	mortality at 100 g/ha [8]	mortality at 100 g/ha [9]	pest or weed control at 32 µg/disc, 100 g/ha [10]	mortality at 4 mg/m2 [11]	mortality at 20 mg/m2 [12]
Cc1nc([C@H](C)NC(=O)c2cc(C(F)(F)F)cc(C(F)(F)F)c2)n(-c2cnc(C(=O)N(C)C3CC3)cn2)n1 [Example I-001]	100%	100%	100%	100%	100%	100%	100%	90%	100%	–	–	–
C[C@H](NC(=O)c1cc(OC(F)(F)F)cc(C2CC2)c1)c1ncnn1-c1cnc(C(=O)N(C)C2CC2)cn1 [Example I-003]	100%	100%	–	80%	100%	100%	–	90%	100%	100%	–	–
C[C@H](NC(=O)c1cc(C(F)(F)F)cc(C(F)(F)F)c1)c1ncnn1-c1cnc(C(=O)N(C)C)cn1 [Example I-005]	100%	100%	100%	100%	100%	100%	–	100%	100%	–	–	–
CCN(C)C(=O)c1cnc(-n2ncnc2[C@H](C)NC(=O)c2cc(C(F)(F)F)cc(C(F)(F)F)c2)cn1 [Example I-006]	100%	100%	100%	100%	100%	100%	–	100%	100%	–	–	–
C[C@H](NC(=O)c1cc(C(F)(F)F)cc(C(F)(F)F)c1)c1ncnn1-c1cnc(C(N)=O)cn1 [Example I-010]	100%	100%	100%	100%	100%	100%	100%	90%	100%	–	–	–
Cc1nc([C@H](C)NC(=O)c2cc(C(F)(F)F)cc(C(F)(F)F)c2)n(-c2cnc(C(=O)N(C)C)cn2)n1 [Example I-015]	100%	–	100%	100%	–	100%	100%	90%	100%	–	–	–
CCN(C)C(=O)c1cnc(-n2nc(C)nc2[C@H](C)NC(=O)c2cc(C(F)(F)F)cc(C(F)(F)F)c2)cn1 [Example I-016]	100%	–	100%	100%	–	100%	100%	100%	100%	–	–	–
CNC(=O)c1cnc(-n2ncnc2[C@H](C)NC(=O)c2cc(OC(F)(F)F)cc(S(C)(=O)=O)c2)cn1 [Example I-019]	100%	–	100%	100%	–	100%	100%	90%	100%	100%	80 to 100%	80 to 100%
Cc1nc([C@H](C)NC(=O)c2cc(OC(F)(F)F)cc(C3CC3)c2)n(-c2cnc(C(=O)N(C)C)cn2)n1 [Example I-047, 5-(5-{(1S)-1-[3-Cyclopropyl-5-(trifluoromethoxy)benzamido]ethyl}-3-methyl-1H-1,2,4-triazol-1-yl)-N,N-dimethylpyrazine-2-carboxamide]	100%	–	100%	100%	–	100%	100%	90%	100%	80%	–	–

Source: patent publication US20240368125A1, “NOVEL PYRAZINYL-TRIAZOLE COMPOUNDS AS PESTICIDES” (Bayer Aktiengesellschaft, priority 2021, published 2024)
